Among the targets are CDK7 (Homo sapiens, UniProt P50613); PIK3CD (Homo sapiens, UniProt O00329); KIT-autoinhibited (Homo sapiens, UniProt P10721); MAP3K3 (Homo sapiens, UniProt Q99759); PAK4 (Homo sapiens, UniProt O96013); IRAK1 (Homo sapiens, UniProt P51617); CSNK1A1 (Homo sapiens, UniProt P48729); GRK2 (Homo sapiens, UniProt P25098); DYRK2 (Homo sapiens, UniProt Q92630); CAMK2G (Homo sapiens, UniProt Q13555); FLT4 (Homo sapiens, UniProt P35916); PIK3CG (Homo sapiens, UniProt P48736); BMPR2 (Homo sapiens, UniProt Q13873); PIK3CA(H1047Y) (Homo sapiens, UniProt P42336, H1047Y); ACVRL1 (Homo sapiens, UniProt P37023).

Common to all, as to assay: biochemical
Common to all, as to set-up: DiscoverX KINOMEscan scanMAX competition binding panel, single concentration, percent of control; remaining binding: dose or concentration left out as unconfirmed
Conditions in all cases: KINOMEscan binding, percent of control; read-out: Table S4_SCANMAX REPORT - related to Fig. 1 / Percent Control

Another experiment deals with T1, TRKB (Homo sapiens, UniProt Q16620).
T1 construct: gene NTRK2

The next experiment deals with T2, NIM1 (Homo sapiens, UniProt Q8IY84).
T2 construct: gene NIM1K

Another experiment deals with T3, ABL1-nonphosphorylated (Homo sapiens, UniProt P00519).
T3 construct: nonphosphorylated

A further experiment addresses T4, DRAK1 (Homo sapiens, UniProt Q9UEE5).
T4 construct: gene STK17A

Sequence of CSNK1A1 (P48729 whole entry): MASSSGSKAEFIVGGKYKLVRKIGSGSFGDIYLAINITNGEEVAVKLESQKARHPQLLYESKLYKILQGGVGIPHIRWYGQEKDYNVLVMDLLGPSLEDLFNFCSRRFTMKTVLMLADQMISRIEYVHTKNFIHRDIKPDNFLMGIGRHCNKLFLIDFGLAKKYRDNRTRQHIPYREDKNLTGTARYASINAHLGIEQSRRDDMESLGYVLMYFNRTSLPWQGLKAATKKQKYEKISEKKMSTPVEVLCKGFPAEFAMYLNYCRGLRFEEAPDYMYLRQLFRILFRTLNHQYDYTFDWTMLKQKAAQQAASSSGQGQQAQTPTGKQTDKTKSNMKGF
T4 sequence (Q9UEE5 whole entry): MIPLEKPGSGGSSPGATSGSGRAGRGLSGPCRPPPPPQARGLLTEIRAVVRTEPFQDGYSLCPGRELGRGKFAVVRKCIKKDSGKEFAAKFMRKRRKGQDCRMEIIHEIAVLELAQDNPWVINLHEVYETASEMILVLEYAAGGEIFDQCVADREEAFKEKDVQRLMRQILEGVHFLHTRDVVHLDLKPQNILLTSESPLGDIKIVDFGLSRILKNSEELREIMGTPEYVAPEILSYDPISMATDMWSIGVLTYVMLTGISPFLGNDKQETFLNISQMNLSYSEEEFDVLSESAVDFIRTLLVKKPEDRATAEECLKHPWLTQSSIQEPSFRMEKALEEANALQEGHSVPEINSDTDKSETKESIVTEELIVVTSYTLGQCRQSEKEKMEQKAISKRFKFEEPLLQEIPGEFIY
Sequence of ACVRL1 (P37023 whole entry): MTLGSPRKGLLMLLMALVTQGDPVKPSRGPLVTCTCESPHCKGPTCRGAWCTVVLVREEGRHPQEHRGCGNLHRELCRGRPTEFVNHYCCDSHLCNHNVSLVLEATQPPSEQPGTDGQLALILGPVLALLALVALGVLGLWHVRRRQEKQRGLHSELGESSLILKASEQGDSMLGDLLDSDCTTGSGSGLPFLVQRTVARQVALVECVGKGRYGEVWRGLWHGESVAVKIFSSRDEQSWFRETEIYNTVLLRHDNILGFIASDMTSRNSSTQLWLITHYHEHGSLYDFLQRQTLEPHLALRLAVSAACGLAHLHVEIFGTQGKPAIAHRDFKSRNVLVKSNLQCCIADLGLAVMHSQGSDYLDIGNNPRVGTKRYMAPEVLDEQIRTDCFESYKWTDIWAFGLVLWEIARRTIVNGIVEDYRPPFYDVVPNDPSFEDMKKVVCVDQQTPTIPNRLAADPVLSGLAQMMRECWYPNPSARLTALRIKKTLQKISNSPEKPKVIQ
Sequence of CAMK2G (Q13555 whole entry): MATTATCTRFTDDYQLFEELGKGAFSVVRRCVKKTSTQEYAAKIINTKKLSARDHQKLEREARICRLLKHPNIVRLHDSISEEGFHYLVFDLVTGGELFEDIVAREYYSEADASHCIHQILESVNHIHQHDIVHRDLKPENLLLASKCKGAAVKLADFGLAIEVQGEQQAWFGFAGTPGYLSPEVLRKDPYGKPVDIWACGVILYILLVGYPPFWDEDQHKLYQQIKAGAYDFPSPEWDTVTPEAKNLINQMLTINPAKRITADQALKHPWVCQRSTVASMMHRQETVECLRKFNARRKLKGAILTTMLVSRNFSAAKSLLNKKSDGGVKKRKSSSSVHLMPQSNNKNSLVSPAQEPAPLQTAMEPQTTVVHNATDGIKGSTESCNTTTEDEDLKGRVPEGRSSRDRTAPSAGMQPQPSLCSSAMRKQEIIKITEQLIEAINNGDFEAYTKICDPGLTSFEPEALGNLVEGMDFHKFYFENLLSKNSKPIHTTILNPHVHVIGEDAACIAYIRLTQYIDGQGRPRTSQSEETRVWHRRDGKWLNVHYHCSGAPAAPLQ
Sequence of PIK3CA(H1047Y) (P42336 whole entry H1047Y): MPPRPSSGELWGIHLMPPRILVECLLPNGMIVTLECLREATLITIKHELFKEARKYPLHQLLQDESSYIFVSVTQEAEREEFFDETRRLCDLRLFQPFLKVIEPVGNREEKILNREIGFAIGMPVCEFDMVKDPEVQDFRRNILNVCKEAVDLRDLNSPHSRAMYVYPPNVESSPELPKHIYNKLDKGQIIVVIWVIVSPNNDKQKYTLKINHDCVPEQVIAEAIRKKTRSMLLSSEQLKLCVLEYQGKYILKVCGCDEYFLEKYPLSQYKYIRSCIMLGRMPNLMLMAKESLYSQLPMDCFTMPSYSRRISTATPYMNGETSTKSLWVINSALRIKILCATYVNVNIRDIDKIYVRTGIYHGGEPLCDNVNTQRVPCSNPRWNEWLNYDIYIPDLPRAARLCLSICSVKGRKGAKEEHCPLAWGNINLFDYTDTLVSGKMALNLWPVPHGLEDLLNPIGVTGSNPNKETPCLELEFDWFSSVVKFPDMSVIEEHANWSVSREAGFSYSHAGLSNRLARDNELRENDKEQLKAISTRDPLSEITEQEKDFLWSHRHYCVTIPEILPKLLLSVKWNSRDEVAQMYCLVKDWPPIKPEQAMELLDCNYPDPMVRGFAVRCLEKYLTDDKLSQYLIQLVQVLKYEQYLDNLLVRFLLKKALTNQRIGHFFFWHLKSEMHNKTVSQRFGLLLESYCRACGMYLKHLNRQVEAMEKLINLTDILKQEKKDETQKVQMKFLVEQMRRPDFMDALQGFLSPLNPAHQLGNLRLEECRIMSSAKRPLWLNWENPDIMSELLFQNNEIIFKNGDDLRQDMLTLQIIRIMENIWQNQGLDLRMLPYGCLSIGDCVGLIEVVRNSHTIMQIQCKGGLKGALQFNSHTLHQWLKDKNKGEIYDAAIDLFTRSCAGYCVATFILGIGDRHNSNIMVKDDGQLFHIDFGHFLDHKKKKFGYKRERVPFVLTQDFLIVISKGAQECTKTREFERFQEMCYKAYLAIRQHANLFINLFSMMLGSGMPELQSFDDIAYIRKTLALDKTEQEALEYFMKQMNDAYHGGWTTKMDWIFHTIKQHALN
Sequence of FLT4 (P35916 whole entry): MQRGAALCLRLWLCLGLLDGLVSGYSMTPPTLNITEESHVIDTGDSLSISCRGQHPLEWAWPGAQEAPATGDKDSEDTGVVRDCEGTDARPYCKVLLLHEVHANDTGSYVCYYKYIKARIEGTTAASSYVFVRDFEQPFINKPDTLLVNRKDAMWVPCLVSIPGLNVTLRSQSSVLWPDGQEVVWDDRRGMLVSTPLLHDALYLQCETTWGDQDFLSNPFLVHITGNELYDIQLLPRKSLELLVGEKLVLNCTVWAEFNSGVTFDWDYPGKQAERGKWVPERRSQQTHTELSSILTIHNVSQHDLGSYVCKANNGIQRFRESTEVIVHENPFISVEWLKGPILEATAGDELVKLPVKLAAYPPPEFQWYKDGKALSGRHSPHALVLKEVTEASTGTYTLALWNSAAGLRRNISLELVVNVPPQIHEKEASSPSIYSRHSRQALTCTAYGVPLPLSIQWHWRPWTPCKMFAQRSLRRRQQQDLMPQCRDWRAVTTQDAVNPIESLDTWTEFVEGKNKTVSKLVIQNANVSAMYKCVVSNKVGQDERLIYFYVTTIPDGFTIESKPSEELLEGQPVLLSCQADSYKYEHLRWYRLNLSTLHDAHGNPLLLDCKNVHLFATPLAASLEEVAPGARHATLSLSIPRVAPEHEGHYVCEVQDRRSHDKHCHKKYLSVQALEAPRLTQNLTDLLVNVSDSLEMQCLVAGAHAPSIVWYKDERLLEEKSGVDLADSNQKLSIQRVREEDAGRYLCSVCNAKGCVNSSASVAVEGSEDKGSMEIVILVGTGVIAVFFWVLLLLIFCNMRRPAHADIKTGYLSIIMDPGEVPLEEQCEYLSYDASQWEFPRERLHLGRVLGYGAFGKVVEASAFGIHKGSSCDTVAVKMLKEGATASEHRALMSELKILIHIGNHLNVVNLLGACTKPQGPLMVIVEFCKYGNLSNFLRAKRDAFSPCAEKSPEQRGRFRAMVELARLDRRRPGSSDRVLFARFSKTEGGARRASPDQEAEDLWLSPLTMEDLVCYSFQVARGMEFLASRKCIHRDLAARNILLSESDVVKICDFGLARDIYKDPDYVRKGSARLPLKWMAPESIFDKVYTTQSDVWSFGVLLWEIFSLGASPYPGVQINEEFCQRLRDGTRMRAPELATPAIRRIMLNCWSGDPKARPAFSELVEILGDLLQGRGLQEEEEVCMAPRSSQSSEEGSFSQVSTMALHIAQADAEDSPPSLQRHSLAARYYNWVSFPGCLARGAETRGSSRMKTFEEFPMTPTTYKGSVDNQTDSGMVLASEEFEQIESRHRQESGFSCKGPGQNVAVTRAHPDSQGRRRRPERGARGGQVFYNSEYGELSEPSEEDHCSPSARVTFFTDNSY
Sequence of GRK2 (P25098 whole entry): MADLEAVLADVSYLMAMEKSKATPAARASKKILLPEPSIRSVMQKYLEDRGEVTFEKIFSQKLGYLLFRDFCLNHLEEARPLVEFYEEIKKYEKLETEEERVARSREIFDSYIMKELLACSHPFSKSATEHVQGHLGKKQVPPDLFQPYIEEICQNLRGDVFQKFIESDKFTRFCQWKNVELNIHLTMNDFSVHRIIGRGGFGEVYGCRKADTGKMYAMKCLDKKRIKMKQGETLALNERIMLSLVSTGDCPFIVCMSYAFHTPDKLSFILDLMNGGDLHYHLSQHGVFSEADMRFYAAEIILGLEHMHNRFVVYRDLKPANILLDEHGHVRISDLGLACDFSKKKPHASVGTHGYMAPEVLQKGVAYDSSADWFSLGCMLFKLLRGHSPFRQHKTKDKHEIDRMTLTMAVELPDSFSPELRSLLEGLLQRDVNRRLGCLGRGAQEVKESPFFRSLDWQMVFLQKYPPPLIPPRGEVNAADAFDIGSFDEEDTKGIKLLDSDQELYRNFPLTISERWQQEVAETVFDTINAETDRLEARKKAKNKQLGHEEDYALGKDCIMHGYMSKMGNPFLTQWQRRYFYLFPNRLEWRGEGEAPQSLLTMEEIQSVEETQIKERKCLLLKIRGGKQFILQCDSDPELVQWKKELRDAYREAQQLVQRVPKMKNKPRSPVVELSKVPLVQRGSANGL

In the case of `c1ccc2c(c1)Sc1ccccc1N2CCN1CCOCC1` [J54], the remaining binding at TRKB came to 89%; at CDK7, 74%; at PIK3CD, 100%; at KIT-autoinhibited, 100%; at NIM1 it was 100%; at MAP3K3, 100%. Also, the remaining binding on PAK4 came out at 99%; at IRAK1, 100%; at CSNK1A1, 100%; at ABL1-nonphosphorylated, 95%; on GRK2 it was 93%; at DRAK1 it was 89%. Also, the remaining binding worked out at 83% at DYRK2; 100% at CAMK2G; 96% at FLT4; 99% at PIK3CG; 100% at BMPR2; 86% on PIK3CA(H1047Y). The remaining binding at ACVRL1 amounted to 100%.

The values above are taken from publication PMC7486443, “Generation of Phenothiazine with Potent Anti-TLK1 Activity for Prostate Cancer Therapy” (iScience, 2020).
